From patent US11492347B2 (ENYO PHARMA, priority 2018, dated 2022)

Legend:
[1] = system: H1N1 (influenza A/New Caledonia/20/99); assay: microbe, parasite or virus in culture; format: cell-based; settings: H1N1, A549, 48 h
[2] = target: T1, CISD2 Gene Product (NAF-1) (Homo sapiens, UniProt Q8N5K1); assay: Stability of Fe-S cluster binding of purified NEET protein (absorbance 458 nm); format: biochemical; settings: for Time (in minutes) to achieve 50% loss of bound cluster (Absorbance 458 nm) / Residual cluster bound at end of experiment (Percentage Absorbance 458 nm at time zero): NAF-1 20 μM, compound 60 μM; for Time (in minutes) to achieve 50% loss of bound cluster (Absorbance 458 nm): pH 6, 37° C., run time 500 minutes, vehicle control 310 or 210; for Residual cluster bound at end of experiment (Percentage Absorbance 458 nm at time zero): pH 6, at 500 minutes, vehicle control 3%; for Stabiliser or destabiliser of Fe-S cluster binding by CISD2 Gene Product (NAF-1): time to 50% cluster loss changed by more than 25% compared to the Control sample, at the concentrations tested
T1 sequence (Q8N5K1 57-135 limits assumed): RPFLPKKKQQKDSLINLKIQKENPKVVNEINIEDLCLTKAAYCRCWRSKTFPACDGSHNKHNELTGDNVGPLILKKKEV
Description: (§1) The modulator effect on the NEET proteins encoded by human CISD1, CISD2, and CISD3 genes by the compounds of the invention has been tested and is reported below. Particularly, the biochemical function of the NEET proteins is measured by the stability of Fe—S cluster binding of the purified NEET proteins.
(§2) The Fe—S cluster binding capacity of NEET proteins is known to be coordinated by four amino-acids in a stretch of 16 (three Cysteine and one Histidine). As the lability of the Fe—S cluster of NEET proteins is sensitive to the environment, cluster stability measurements are one of the measures of interactions of NEET proteins with small molecules and compounds. NEET protein/2Fe-2S cluster stability can be assessed by monitoring the decay in absorbance of its characteristic 458-nm peak (characteristic of the oxidized 2Fe-2S cluster) over time. Each NEET protein (mitoNEET, NAF-1 and Miner 2) was tested for its Fe—S binding in the absence or presence of a compound according to the invention (see table 4 below). The rate of cluster release (time in minutes to achieve 50% loss of bound Fe—S cluster) was compared for each NEET protein in the presence of one of the compounds of the invention (in a 1:3 protein:compound molar ratio) relative to each protein alone.
(§3) At pH 6, all the three NEET proteins (mitoNEET, NAF-1 and Miner 2) have a characteristic rate of loss of the bound Fe—S cluster that can be measured by the decrease of absorbance at wavelength 458 nm over time, using a spectrophotometer. Thus, Bis-Tris buffer (100 mM Bis-Tris pH6, 100 mM Nacl) was used at pH 6 to dilute either DMSO (Blank sample: Bis-Tris Buffer pH 6, 66 μM DMSO), DMSO and one of the three NEET proteins (Control sample: Bis-Tris Buffer pH 6, 66 μM DMSO, 20 μM purified NEET protein) or DMSO, one of the three NEET proteins and a compound of the invention (Test sample: Bis-Tris Buffer pH 6, 66 μM DMSO, 20 μM purified NEET protein, 60 μM compound of the invention).
(§4) A reaction mix containing DMSO diluted in the Bis-Tris Buffer with or without a compound of the invention was prepared. The purified NEET protein was the last component added to the reaction mix which was then aliquoted into 4 replicates in 96 wells plates. The absorbance at wavelength 458 nm was taken at 5 minutes intervals at 37° C. with a spectrofluorimeter. The assay run time for CISD2 gene product (NAF-1) was 500 minutes and 180 minutes for both the CISD1gene product (mitoNEET) and the CISD3 gene product (Miner2).
(§5) In addition to time monitoring, residual bound Fe—S cluster to NEET protein was measured at the final point of the spectrometry assay for each Test sample and compared to the Control sample data (in parenthesis table 4). This residual binding is measured by the differential percentage between the absorbance 458 nm at time zero and the absorbance 458 nm at the end of the experiment (i.e. respectively 500 or 180 minutes as described here above), showing the percentage of NEET protein still able to bind a Fe—S cluster.
(§6) Analysis of the absorbance enables the time for which 50% loss of bound Fe—S cluster is reached (i.e. a 50% absorbance decrease at 458 nm) for each Test sample and each Control sample (in parenthesis table 4) to be determined. The data are then compared to determine whether the compound of the invention stabilizes or destabilizes the NEET protein/Fe—S cluster binding.

[3] = target: T2, CISD3 Gene Product (Miner2) (Homo sapiens, UniProt P0C7P0); assay: as above; format: biochemical; settings: for Residual cluster bound at end of experiment (Percentage Absorbance 458 nm at time zero): CISD3 gene product 20 μM, pH 6, at 180 minutes, vehicle control 11%; for Residual cluster bound at end of experiment (Percentage Absorbance 458 nm at time zero) / Time (in minutes) to achieve 50% loss of bound cluster (Absorbance 458 nm): compound 60 μM; for Time (in minutes) to achieve 50% loss of bound cluster (Absorbance 458 nm): Miner2 20 μM, pH 6, 37° C., run time 180 minutes, vehicle control 60; for Stabiliser or destabiliser of Fe-S cluster binding by CISD3 Gene Product (Miner2): time to 50% cluster loss changed by more than 25% compared to the Control sample, at the concentrations tested
T2 sequence (P0C7P0 15-127): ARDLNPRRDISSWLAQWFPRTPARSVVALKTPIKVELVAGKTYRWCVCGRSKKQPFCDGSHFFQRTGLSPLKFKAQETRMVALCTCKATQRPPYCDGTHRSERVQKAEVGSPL
Description: as §1, §2, §3, §4, §5, §6

[4] = target: T3, CISD1 Gene Product (mitoNEET) (Homo sapiens, UniProt Q9NZ45); assay: as above; format: biochemical; settings: for Time (in minutes) to achieve 50% loss of bound cluster (Absorbance 458 nm) / Residual cluster bound at end of experiment (Percentage Absorbance 458 nm at time zero): mitoNEET 20 μM, compound 60 μM; for Time (in minutes) to achieve 50% loss of bound cluster (Absorbance 458 nm): pH 6, 37° C., run time 180 minutes, vehicle control 80; for Residual cluster bound at end of experiment (Percentage Absorbance 458 nm at time zero): pH 6, at 180 minutes, vehicle control 16%; for Stabiliser or destabiliser of Fe-S cluster binding by CISD1 Gene Product (mitoNEET): time to 50% cluster loss changed by more than 25% compared to the Control sample, at the concentrations tested
T3 sequence (Q9NZ45 33-108 limits assumed): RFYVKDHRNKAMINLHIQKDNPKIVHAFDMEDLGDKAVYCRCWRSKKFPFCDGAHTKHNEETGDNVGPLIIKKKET
Description: as §1, §2, §3, §4, §5, §6

COc1ccc(C(=O)Nc2sc3c(c2C(=O)O)CCC(C)(C)C3)cc1 [Compound #20, 2-[(4-Methoxybenzoyl)amino]-6,6-dimethyl-5,7-dihydro-4H-benzothiophene-3-carboxylic acid]
IC50 [1]: 74 nM | Time (in minutes) to achieve 50% loss of bound cluster (Absorbance 458 nm) [2]: 300 (310) minutes | Residual cluster bound at end of experiment (Percentage Absorbance 458 nm at time zero) [2]: 4% (3%) | Residual cluster bound at end of experiment (Percentage Absorbance 458 nm at time zero) [3]: 9% (11%) | Time (in minutes) to achieve 50% loss of bound cluster (Absorbance 458 nm) [3]: 35 (60) minutes | Stabiliser or destabiliser of Fe-S cluster binding by CISD3 Gene Product (Miner2) [3]: Destabilisers | Time (in minutes) to achieve 50% loss of bound cluster (Absorbance 458 nm) [4]: 65 (80) minutes | Residual cluster bound at end of experiment (Percentage Absorbance 458 nm at time zero) [4]: 0% (16%)

CN(c1ccc(C(=O)Nc2sc3c(c2C(=O)O)CC(C)(C)CC3(C)C)cc1)C1CCOCC1 [Compound #135, 5,5,7,7-Tetramethyl-2-[[4-[methyl(tetrahydropyran-4-yl)amino]benzoyl]amino]-4,6-dihydrobenzothiophene-3-carboxylic acid]
IC50 [1]: 6.1 nM | Time (in minutes) to achieve 50% loss of bound cluster (Absorbance 458 nm) [2]: 160 (310) minutes | Residual cluster bound at end of experiment (Percentage Absorbance 458 nm at time zero) [2]: 16% (3%) | Stabiliser or destabiliser of Fe-S cluster binding by CISD2 Gene Product (NAF-1) [2]: destabilisers | Residual cluster bound at end of experiment (Percentage Absorbance 458 nm at time zero) [3]: 20% (11%) | Time (in minutes) to achieve 50% loss of bound cluster (Absorbance 458 nm) [3]: 80 min | Stabiliser or destabiliser of Fe-S cluster binding by CISD3 Gene Product (Miner2) [3]: Stabilisers | Time (in minutes) to achieve 50% loss of bound cluster (Absorbance 458 nm) [4]: 100 (80) minutes | Residual cluster bound at end of experiment (Percentage Absorbance 458 nm at time zero) [4]: 24% (16%) | Stabiliser or destabiliser of Fe-S cluster binding by CISD1 Gene Product (mitoNEET) [4]: stabilisers

CC1CC(C)(C)Cc2sc(NC(=O)c3ccc(NC4CCOCC4)cc3)c(C(=O)O)c21 (centres unmarked) [Compound #136, 4,6,6-Trimethyl-2-[[4-(tetrahydropyran-4-ylamino)benzoyl]amino]-5,7-dihydro-4H-benzothiophene-3-carboxylic acid]
IC50 [1]: 12 nM | Time (in minutes) to achieve 50% loss of bound cluster (Absorbance 458 nm) [2]: 325 (310) minutes | Residual cluster bound at end of experiment (Percentage Absorbance 458 nm at time zero) [2]: 5% (3%) | Residual cluster bound at end of experiment (Percentage Absorbance 458 nm at time zero) [3]: 10% (11%) | Time (in minutes) to achieve 50% loss of bound cluster (Absorbance 458 nm) [3]: 45 (60) minutes | Stabiliser or destabiliser of Fe-S cluster binding by CISD3 Gene Product (Miner2) [3]: Destabilisers | Time (in minutes) to achieve 50% loss of bound cluster (Absorbance 458 nm) [4]: 75 (80) minutes | Residual cluster bound at end of experiment (Percentage Absorbance 458 nm at time zero) [4]: 2% (16%)

CC1(C)Cc2c(sc(NC(=O)c3ccc(Br)cc3)c2C(=O)O)C(C)(C)C1 [Compound #138, 2-[(4-Bromobenzoyl)amino]-5,5,7,7-tetramethyl-4,6-dihydrobenzothiophene-3-carboxylic acid]
IC50 [1]: 8.8 nM | Time (in minutes) to achieve 50% loss of bound cluster (Absorbance 458 nm) [2]: 435 (210) minutes | Residual cluster bound at end of experiment (Percentage Absorbance 458 nm at time zero) [2]: 30% (3%) | Stabiliser or destabiliser of Fe-S cluster binding by CISD2 Gene Product (NAF-1) [2]: Stabilisers | Residual cluster bound at end of experiment (Percentage Absorbance 458 nm at time zero) [3]: 66% (11%) | Stabiliser or destabiliser of Fe-S cluster binding by CISD3 Gene Product (Miner2) [3]: Stabilisers | Residual cluster bound at end of experiment (Percentage Absorbance 458 nm at time zero) [4]: 53% (16%) | Stabiliser or destabiliser of Fe-S cluster binding by CISD1 Gene Product (mitoNEET) [4]: stabilisers

COC1CN(c2ccc(C(=O)Nc3sc4c(c3C(=O)O)CCC(C)(C)C4)cc2)C1 [Compound #147, 2-[[4-(3-Methoxyazetidin-1-yl)benzoyl]amino]-6,6-dimethyl-5,7-dihydro-4H-benzothiophene-3-carboxylic acid]
IC50 [1]: 11.1 nM | Time (in minutes) to achieve 50% loss of bound cluster (Absorbance 458 nm) [2]: 85 (310) minutes | Residual cluster bound at end of experiment (Percentage Absorbance 458 nm at time zero) [2]: 5% (3%) | Stabiliser or destabiliser of Fe-S cluster binding by CISD2 Gene Product (NAF-1) [2]: destabilisers | Residual cluster bound at end of experiment (Percentage Absorbance 458 nm at time zero) [3]: 10% (11%) | Time (in minutes) to achieve 50% loss of bound cluster (Absorbance 458 nm) [3]: 60 (60) minutes | Time (in minutes) to achieve 50% loss of bound cluster (Absorbance 458 nm) [4]: 75 (80) minutes | Residual cluster bound at end of experiment (Percentage Absorbance 458 nm at time zero) [4]: 11% (16%)

CN(CC1CCOCC1)c1ccc(C(=O)Nc2sc3c(c2C(=O)O)CC(C)(C)CC3(C)C)cc1 [Compound #152, 5,5,7,7-Tetramethyl-2-[[4-[methyl(tetrahydropyran-4-ylmethyl)amino]benzoyl]amino]-4,6-dihydrobenzothiophene-3-carboxylicacid]
IC50 [1]: 0.5 nM

COC1CN(c2ccc(C(=O)Nc3sc4c(c3C(=O)O)C(C)CC(C)(C)C4)cc2)C1 (centres unmarked) [Compound #153, 2-[[4-(3-Methoxyazetidin-1-yl)benzoyl]amino]-4,6,6-trimethyl-5,7-dihydro-4H-benzothiophene-3-carboxylic acid]
IC50 [1]: 14 nM

CC1(C)CCc2sc(NC(=O)c3ccc(Br)cc3)c(C(=O)O)c2C1 [Compound #154, 2-[(4-Bromobenzoyl)amino]-5,5-dimethyl-6,7-dihydro-4H-benzothiophene-3-carboxylic acid]
IC50 [1]: 30 nM

COC1CCN(c2ccc(C(=O)Nc3sc4c(c3C(=O)O)CC(C)(C)CC4(C)C)cc2)CC1 [Compound #155, 2-[[4-(4-Methoxy-1-piperidyl)benzoyl]amino]-5,5,7,7-tetramethyl-4,6-dihydrobenzothiophene-3-carboxylic acid]
IC50 [1]: 10 nM

CCOC1CN(c2ccc(C(=O)Nc3sc4c(c3C(=O)O)CC(C)(C)CC4(C)C)cc2)C1 [Compound #156, 2-[[4-(3-Ethoxyazetidin-1-yl)benzoyl]amino]-5,5,7,7-tetramethyl-4,6-dihydrobenzothiophene-3-carboxylic acid]
IC50 [1]: 2 nM

CC1CC(C)(C)Cc2sc(NC(=O)c3ccc(NCC4CCOCC4)cc3)c(C(=O)O)c21 (centres unmarked) [Compound #157, 4,6,6-Trimethyl-2-[[4-(tetrahydropyran-4-ylmethylamino)benzoyl]amino]-5,7-dihydro-4H-benzothiophene-3-carboxylic acid]
IC50 [1]: 5 nM

CC1(C)CCc2sc(NC(=O)c3ccc(Br)cc3)c(C(=O)O)c21 [Compound #158, 2-[(4-Bromobenzoyl)amino]-4,4-dimethyl-5,6-dihydro cyclopenta[b]thiophene-3-carboxylic acid]
IC50 [1]: 320 nM

CC1(C)CCc2sc(NC(=O)c3ccc(N4CCOCC4)cc3)c(C(=O)O)c2C1 [Compound #159, 5,5-Dimethyl-2-[(4-morpholinobenzoyl)amino]-6,7-dihydro-4H-benzothiophene-3-carboxylic acid]
IC50 [1]: 18 nM
